Source: ChEMBL document CHEMBL4364286, “Structure-Guided Design, Synthesis, and Biological Evaluation of (2-(1H-Indol-3-yl)-1H-imidazol-4-yl)(3,4,5-trimethoxyphenyl) Methanone (ABI-231) Analogues Targeting the Colchicine Binding Site in Tubulin” (J Med Chem, 2019)
Active and inactive are the calls of the source. The rule behind the calls is not given here.

Key:
WM164 = assay: Antiproliferative activity against human WM164 cells after 72 hrs by MTT assay; format: functional, cell-based; conditions: WM164, 72 h
A-375 [1] = assay: Antiproliferative activity against human A375 cells after 72 hrs by MTT assay; format: functional, cell-based; conditions: A-375, 72 h
M14 = assay: Antiproliferative activity against human M14 cells after 72 hrs by MTT assay; format: functional, cell-based; conditions: M14, 72 h
A-375 [2] = assay: Antitumor activity against human A375 cells xenografted in nude mouse assessed as tumor growth inhibition at 15 mg/kg, ip administered once daily for 14 days and measured after 20 days by caliper method relative to control; format: functional; conditions: A-375, ip, read-out: TGI
PC-3 [3] = assay: Antitumor activity against human PC3 cells xenografted in nude mouse assessed as tumor growth inhibition at 15 mg/kg administered every other day for 3 weeks relative to control; format: functional; conditions: PC-3, 504 h, read-out: TGI
[4] = Antitumor activity against human PC3-TxR cells xenografted in nude mouse assessed as reduction in tumor weight at 15 mg/kg administered every other day for 3 weeks relative to control; format: functional; design: scale not given: the % may be the effect or the level left
[5] = Antiproliferative activity against human DU145-TxR cells; format: functional, cell-based
[6] = Antitumor activity against human PC3-TxR cells xenografted in nude mouse assessed as tumor growth inhibition at 15 mg/kg administered every other day for 3 weeks relative to control; format: functional; conditions: 504 h, read-out: TGI
[7] = Half-life in CD-1 mouse liver microsomes in presence of NADPH regenerating system measured up to 4 hrs by UPLC-MS analysis; format: ADME, Microsome
[8] = Intrinsic clearance in rat liver microsomes pre-incubated for 15 mins followed by addition of NADPH regenerating system by LC-MS analysis; format: ADME, Microsome; conditions: read-out: CLH
[9] = Half-life in human liver microsomes in presence of NADPH regenerating system; format: ADME, Microsome
[10] = Half-life in rat liver microsomes pre-incubated for 15 mins followed by addition of NADPH regenerating system by LC-MS analysis; format: ADME, Microsome
[11] = Intrinsic clearance in human liver microsomes in presence of NADPH regenerating system; format: ADME, Microsome; conditions: read-out: CLH
[12] = Intrinsic clearance in CD-1 mouse liver microsomes in presence of NADPH regenerating system measured up to 4 hrs by UPLC-MS analysis; format: ADME, Microsome; conditions: read-out: CLH
[13] = Resistance index, ratio of IC50 for human DU145-TxR cells to IC50 for human DU145 cells; format: functional
Tubulin (Homo sapiens) [14] = target: T1, Tubulin (Homo sapiens) (UniProt P68371+Q9H4B7+P0DPH7+P68366+Q13509+Q71U36+P04350+Q3ZCM7+P07437+P68363+Q9BQE3+Q6PEY2+Q13885+Q9BVA1+Q9BUF5); assay: Effect on microtubule network in human WM164 cells assessed as formation of dense and aggregated bundles of microtubules at 100 nM after 18 hrs by DAPI staining based fluorescence confocal microscopic method; format: cell-based
Tubulin (Homo sapiens) [15] = target: T1, Tubulin (Homo sapiens); assay: Effect on microtubule network in human WM164 cells assessed as induction of polymerization at 100 nM after 18 hrs by DAPI staining based fluorescence confocal microscopic method; format: cell-based
Tubulin (Bos taurus) [16] = target: T2, Tubulin (Bos taurus) (UniProt Q6B856+Q862L2+Q862F3); assay: Induction of bovine brain tubulin polymerization at 10 uM measured at time interval of 1 mins for 20 mins by spectrophotometric analysis
[17] = Resistance index, ratio of IC50 for human PC3-TxR cells to IC50 for human PC3 cells; format: functional
[18] = Antiproliferative activity against human PC3-TxR cells; format: functional, cell-based
RPMI-7951 = assay: Antimigratory activity in human RPMI7951 cells assessed as wound closure at 25 nM after 18 hrs by scratch migration assay (reference value: 71.8 +/- 1.8%); format: functional
A-375 [19] = assay: Inhibition of anchorage-dependent colony formation in human A375 cells assessed as decrease in colony number at 5 nM after 12 days by crystal violet-staining based assay relative to control; format: functional; conditions: A-375, 288 h
PC-3 [20] = assay: Antiproliferative activity against human PC3 cells; format: functional, cell-based
A-375 [21] = assay: Antimigratory activity in human A375 cells assessed as wound closure at 5 nM after 22 hrs by scratch migration assay (reference value: 60.7 +/- 3.5%); format: functional
A-375 [22] = assay: Antimigratory activity in human A375 cells assessed as wound closure at 25 nM after 22 hrs by scratch migration assay (reference value: 60.7 +/- 3.5%); format: functional
DU-145 = assay: Antiproliferative activity against human DU145 cells; format: functional, cell-based
Tubulin (Homo sapiens) [23] = target: T1, Tubulin (Homo sapiens); assay: Disruption of microtubule network in human WM164 cells assessed as microtubule disassembly at 100 nM after 18 hrs by DAPI staining based fluorescence confocal microscopic method; format: cell-based
Tubulin (Bos taurus) [24] = target: T2, Tubulin (Bos taurus); assay: Inhibition of bovine brain tubulin polymerization at 10 uM measured at time interval of 1 mins for 20 mins by spectrophotometric analysis
Tubulin (Homo sapiens) [25] = target: T1, Tubulin (Homo sapiens); assay: Disruption of microtubule network in human WM164 cells assessed as microtubule fragmentation at 100 nM after 18 hrs by DAPI staining based fluorescence confocal microscopic method; format: cell-based

Row | SMILES | IC50 (WM164) [µM] | IC50 (A-375 [1]; read-out: IC50) [µM] | IC50 (M14) [µM] | also measured
1 | COc1cc(C(=O)c2c[nH]c(-c3c[nH]c4cc(C)ccc34)n2)cc(OC)c1OC | 0.0237 | 0.0211 | 0.0217 | –
2 | COc1cc(C(=O)c2c[nH]c(-c3c[nH]c4c(OCc5ccccc5)cccc34)n2)cc(OC)c1OC | > 1 | > 1 | > 1 | –
3 | COc1cc(C(=O)c2c[nH]c(-c3c[nH]c4ccc(O)cc34)n2)cc(OC)c1OC | > 1 | > 1 | > 1 | –
4 | COc1cc(C(=O)c2c[nH]c(-c3c[nH]c4ccc(C)cc34)n2)cc(OC)c1OC | 0.552 | 0.278 | 0.177 | –
5 | CC(=O)O[C@H]1C(=O)[C@@]2(C)[C@H]([C@H](OC(=O)c3ccccc3)[C@]3(O)C[C@H](OC(=O)[C@H](O)[C@@H](NC(=O)c4ccccc4)c4ccccc4)C(C)=C1C3(C)C)[C@]1(OC(C)=O)CO[C@@H]1C[C@@H]2O [PACLITAXEL] | – | – | – | inhibition in vivo at 15 mg/kg (A-375 [2]): 68.6%; inhibition in vivo at 15 mg/kg (PC-3 [3]): 101%; Activity [4]: 34.5%; IC50 [5]: > 1 µM; inhibition in vivo at 15 mg/kg [6]: 37.8%
6 | COc1cc(C(=O)c2c[nH]c(-c3c[nH]c4cc(Br)ccc34)n2)cc(OC)c1OC | 0.0554 | 0.0678 | 0.0412 | –
7 | COc1cc(C(=O)c2c[nH]c(-c3c[nH]c4ccc(F)cc34)n2)cc(OC)c1OC | 0.0809 | 0.0192 | 0.018 | –
8 | COc1cc(C(=O)c2c[nH]c(-c3c(-c4ccccc4)[nH]c4ccccc34)n2)cc(OC)c1OC | > 1 | > 1 | > 1 | –
9 | COc1cc(C(=O)c2c[nH]c(-c3cccc4cc[nH]c34)n2)cc(OC)c1OC | 0.436 | 0.286 | 0.241 | –
10 | COC(=O)c1ccc2c(-c3nc(C(=O)c4cc(OC)c(OC)c(OC)c4)c[nH]3)c[nH]c2c1 | > 1 | > 1 | > 1 | –
11 | COc1cc(C(=O)c2c[nH]c(-c3ccc4[nH]ccc4c3)n2)cc(OC)c1OC | 0.0061 | 0.0086 | 0.0185 | –
12 | COc1cc(C(=O)c2c[nH]c(-c3c[nH]c4cc(F)ccc34)n2)cc(OC)c1OC | 0.0103 | 0.0175 | 0.0058 | –
13 | COc1cc(C(=O)c2c[nH]c(-c3ccc4cc[nH]c4c3)n2)cc(OC)c1OC | 0.0038 | 0.008 | 0.0061 | half-life [7]: 5.56 h; CLint scaled [8]: 3.1 mL/min/kg; half-life [9]: 7.61 h; half-life [10]: 15.2 h; CLint scaled [11]: 2.73 mL/min/kg; CLint scaled [12]: 10.3 mL/min/kg
14 | COc1cc(C(=O)c2c[nH]c(-c3c[nH]c4ccc(Cl)cc34)n2)cc(OC)c1OC | 0.16 | 0.0618 | 0.0649 | –
15 | COc1cc(C(=O)c2c[nH]c(-c3c[nH]c4ccc(Br)cc34)n2)cc(OC)c1OC | 0.442 | 0.164 | 0.104 | –
16 | CC(=O)O[C@@]12CO[C@@H]1C[C@H](O)[C@@]1(C)C(=O)[C@H](O)C3=C(C)[C@@H](OC(=O)[C@H](O)[C@@H](NC(=O)OC(C)(C)C)c4ccccc4)C[C@@](O)([C@@H](OC(=O)c4ccccc4)[C@H]21)C3(C)C [DOCETAXEL ANHYDROUS] | – | – | – | Ratio IC50 [13]: >3523; Activity (Tubulin (Homo sapiens) [14]): Active; Activity (Tubulin (Homo sapiens) [15]): Active; Activity (Tubulin (Bos taurus) [16]): Active; IC50 [5]: 0.352 µM
17 | COc1cc(C(=O)c2c[nH]c(-c3c[nH]c4c(C)cccc34)n2)cc(OC)c1OC | 0.0613 | 0.0131 | 0.0108 | –
18 | COc1cc(C(=O)c2c[nH]c(-c3c[nH]c4cc(OCc5ccccc5)ccc34)n2)cc(OC)c1OC | > 1 | > 1 | > 1 | –
19 | COc1cc(C(=O)c2c[nH]c(-c3c[nH]c4cc(O)ccc34)n2)cc(OC)c1OC | > 1 | > 1 | > 1 | –
20 | COc1cc(C(=O)c2c[nH]c(-c3c[nH]c4cccc(OC)c34)n2)cc(OC)c1OC | > 1 | > 1 | > 1 | –
21 | COc1cc(C(=O)c2c[nH]c(-c3c[nH]c4cccc(F)c34)n2)cc(OC)c1OC | – | 0.0072 | 0.0082 | –
22 | COc1cc(C(=O)c2c[nH]c(-c3c[nH]c4ccc(OCc5ccccc5)cc34)n2)cc(OC)c1OC | > 1 | > 1 | > 1 | –
23 | COc1ccc2c(-c3nc(C(=O)c4cc(OC)c(OC)c(OC)c4)c[nH]3)c[nH]c2c1 | > 1 | 0.793 | > 1 | –
24 | COc1cc(C(=O)c2c[nH]c(-c3c[nH]c4cccc(Br)c34)n2)cc(OC)c1OC | 0.0671 | 0.0138 | 0.0104 | –
25 | COc1cc(C(=O)c2c[nH]c(-c3c[nH]c4c(OC)cccc34)n2)cc(OC)c1OC | 0.115 | 0.0383 | 0.0341 | –
26 | COc1cc2c(c(OC)c1OC)-c1ccc(OC)c(=O)cc1[C@@H](NC(C)=O)CC2 [COLCHICINE] | 0.0108 | – | 0.0166 | Ratio IC50 [17]: 3.6; IC50 [18]: 0.0374 µM; Activity (RPMI-7951): 42.8%; inhibition at 0.005 µM (A-375 [19]): 24.7%; IC50 (PC-3 [20]): 0.0104 µM; Activity (A-375 [21]): 46%; IC50 (A-375 [1]): 0.0141 µM; Ratio IC50 [13]: >28; Activity (A-375 [22]): 20.7%; IC50 (DU-145): 0.0355 µM; IC50 [5]: > 1 µM
27 | COc1cc(C(=O)c2c[nH]c(-c3c[nH]c4cccc(OCc5ccccc5)c34)n2)cc(OC)c1OC | > 1 | > 1 | > 1 | –
28 | COc1cc(C(=O)c2c[nH]c(-c3c[nH]c4cccc(C)c34)n2)cc(OC)c1OC | 0.0032 | 0.0018 | 0.0017 | Ratio IC50 [17]: 0.8; half-life [7]: 2.42 h; IC50 [18]: 0.0039 µM; Activity (RPMI-7951): 35.6%; Activity (Tubulin (Homo sapiens) [23]): Active; inhibition at 0.005 µM (A-375 [19]): 59%; CLint scaled [8]: 26 mL/min/kg; IC50 (PC-3 [20]): 0.0052 µM; Activity (A-375 [21]): 48.5%; half-life [9]: 6.7 h; Ratio IC50 [13]: 1.8; half-life [10]: 1.8 h; Activity (A-375 [22]): 25.9%; CLint scaled [11]: 3.1 mL/min/kg; inhibition (Tubulin (Bos taurus) [24]): Active; IC50 (DU-145): 0.0138 µM; IC50 [5]: 0.0252 µM; Activity (Tubulin (Homo sapiens) [25]): Active; CLint scaled [12]: 23.6 mL/min/kg
